Test results as given in US12054660B2, “Compound, composition, cured substance, optically anisotropic body, optical element, and light guide element” (FUJIFILM Corporation, priority 2021, dated 2024).

Legend:
Assay type in all cases: physicochemical
[1] = Evaluation of light resistance of optically anisotropic layer; conditions: rate of change in Re of layer (25 parts compound/75 parts L-1) after xenon irradiation 50 hours, 63° C., 50% RH, oxygen-blocking
Method: (§1) As shown below, the durability of the optically anisotropic layer produced using the composition containing each of the compounds A-1 and A-3 to A-20, and the compounds RA-1 and RA-2 was evaluated.
(§2) A coating composition having the following composition was prepared and applied by spin coating onto a rubbing-treated glass attached with an alignment film.
(§3) The polymerizable liquid crystal compound L-1 is a mixture obtained by mixing at a ratio of the following L-1-1/L-1-2/L-1-3=84/14/2 (in terms of mass ratio).
The produced optically anisotropic layers for light resistance/durability tests were irradiated with light using a Super Xenon Weather Meter SX75 manufactured by Suga Test Instruments Co., Ltd. Using KU-1000100 manufactured by King Seisakusho Co., Ltd. as an ultraviolet ray cut filter, irradiation with 5 million 1× of light was carried out for 50 hours under the oxygen-blocking conditions to carry out a light resistance test. The temperature of the specimen to be tested (the temperature inside the test device) was set to 63° C. The relative humidity in the test device was 50% RH.
The Re of the optically anisotropic layer before and after the light resistance test was measured, the light resistance in a case where the rate of change in Re described below was less than 10% was evaluated as A, and the light resistance in a case where the rate of change in Re was 10% or more was evaluated as B. The smaller the rate of change in Re, the more excellent the light resistance.
(§4) Re is an in-plane retardation. Rate of change in Re (%)=[100×{|(Re after test)−(Re before test)|}/(Re before test)]
(§5) Re was measured with Axoscan manufactured by Axometrics, Inc. at a wavelength of 550 nm, and the measurement temperature was set to room temperature.

[2] = Evaluation of solubility in methyl ethyl ketone; conditions: precipitation concentration in methyl ethyl ketone at room temperature (25° C.)
Method: The solubility of each of the compounds of Examples and Comparative Examples (the compounds A-1, A-3 to A-20, and the compounds RA-1 and RA-2) in methyl ethyl ketone was evaluated. A solution in which the compound was ultrasonically dissolved or dissolved by heating was produced.

[3] = Evaluation of durability (moisture-heat resistance test) of optically anisotropic layer; conditions: rate of change in Re of layer (25 parts compound/75 parts L-1) after 136 hours at 100° C., 95% RH
Method: as §1, §2, §3, §4, §5
The produced optically anisotropic layer was allowed to be left for 136 hours at 100° C. and a relative humidity of 95% RH, whereby a moisture-heat resistance test was carried out. The rate of change in Re before and after the durability test was evaluated, the durability in a case where the rate of change in Re was less than 10% was evaluated as A, and the durability in a case where the rate of change in Re was 10% or more was evaluated as B. The smaller the rate of change in Re, the more excellent the durability.

[4] = Measurement of Δn (refractive index anisotropy), wedge-shaped liquid crystal cell; conditions: 550 nm, 30° C. or lower limit temperature of nematic phase+0 to 10° C.; some extrapolated from 1/2 mixture with L-1-1
Method: The Δn of each of the compounds of Examples and Comparative Examples (the compounds A-1, A-3 to A-20, and the compounds RA-1 and RA-2), which are the compounds to be measured, was measured by a method using a wedge-shaped liquid crystal cell described on page 202 in the Liquid crystal handbook (edited by the liquid crystal handbook editorial board, published by Maruzen Co., Ltd., 2000). An was defined as a measured value at a wavelength of 550 nm at 30° C. or the lower limit temperature of the nematic phase+0° C. to 10° C. In a case of a compound which is liable to crystallize or a compound having no liquid crystallinity, evaluation was carried out using a mixture thereof with the other liquid crystal compound, and Δn was estimated from the extrapolated value of the measured value thereof. The following L-1-1 was used as the other liquid crystal compound. As the above mixture, a mixture obtained by mixing at a ratio of the compound to be measured/the L-1-1=1/2 (in terms of mass ratio) was used.
A case where Δn was 0.35 or more was evaluated as A, a case where Δn was 0.32 or more and less than 0.35 was evaluated as B, a case where Δn was 0.30 or more and less than 0.32 was evaluated as C, and a case where Δn was less than 0.30 was evaluated as D. The results are shown in Table 1.

[5] = Evaluation of liquid crystallinity (hot stage, polarization microscope); design: key: A case of having liquid crystallinity was evaluated as A; a case of having no liquid crystallinity was evaluated as B; conditions: heated on a hot stage
Text: As a specific observation method, optical anisotropy and fluidity derived from the liquid crystal phase can be checked by carrying out an observation under a polarization microscope while heating or lowering the temperature of the compound with a hot stage or the like.
The respective compounds of Examples and Comparative Examples (the compounds A-1, A-3 to A-20, and the compounds RA-1 and RA-2) were heated on a hot stage and observed with a polarization microscope, and the phase transition temperature was measured to evaluate the presence or absence of liquid crystallinity. A case of having liquid crystallinity was evaluated as A, and a case of having no liquid crystallinity was evaluated as B. The results are shown in Table 1.

| SMILES | Liquid crystallinity [5] | Light resistance [1] | Solubility [2] | Durability [3] | Δn [4] |
| --- | --- | --- | --- | --- | --- |
| CC(=O)OCCCCCCCCCCOc1ccc(C#Cc2ccc(OC(=O)c3ccc(C#Cc4ccc(OCCCCCCCCCCOC(C)=O)c(F)c4)cc3)cc2)cc1F [RA-1, reference compound] | A | B (the light resistance in a case where the rate of change in Re was 10% or more was evaluated as B) | B (the solubility in a case where the precipitation concentration was less than 10% by mass was evaluated as B) | A (the durability in a case where the rate of change in Re was less than 10% was evaluated as A) | D (a case where Δn was less than 0.30 was evaluated as D) |
| CC(=O)OCCSc1ccc(C#Cc2ccc(OCc3ccc(C#Cc4ccc(COc5ccc(C#Cc6ccc(SCCOC(C)=O)cc6)cc5C)cc4)cc3)c(C)c2)cc1 [Compound A-15] | A | A (the light resistance in a case where the rate of change in Re described below was less than 10% was evaluated as A) | B (the solubility in a case where the precipitation concentration was less than 10% by mass was evaluated as B) | B (the durability in a case where the rate of change in Re was 10% or more was evaluated as B) | A (A case where Δn was 0.35 or more was evaluated as A) |
| C=CC(=O)OCCCCSc1ccc(C#Cc2ccc(NC(=O)c3ccc(SCCCCOC(=O)C=C)cc3)c(C(F)(F)F)c2)cc1 [RA-2, reference compound] | A | B (the light resistance in a case where the rate of change in Re was 10% or more was evaluated as B) | B (the solubility in a case where the precipitation concentration was less than 10% by mass was evaluated as B) | A (the durability in a case where the rate of change in Re was less than 10% was evaluated as A) | C (a case where Δn was 0.30 or more and less than 0.32 was evaluated as C) |
| CC(=O)OCCSc1ccc(C#Cc2ccc(COc3ccc(C#Cc4ccc(CCOC(C)=O)cc4)cc3)cc2C)cc1 [Compound A-13] | A | A (the light resistance in a case where the rate of change in Re described below was less than 10% was evaluated as A) | A (the solubility in a case where the precipitation concentration was 10% by mass or more was evaluated as A) | B (the durability in a case where the rate of change in Re was 10% or more was evaluated as B) | B (a case where Δn was 0.32 or more and less than 0.35 was evaluated as B) |
| CC(=O)OCCSc1ccc(C#Cc2ccc(CSc3ccc(C#Cc4ccc(CCOC(C)=O)cc4)cc3)cc2C)cc1 [Compound A-1] | B | A (the light resistance in a case where the rate of change in Re described below was less than 10% was evaluated as A) | A (the solubility in a case where the precipitation concentration was 10% by mass or more was evaluated as A) | B (the durability in a case where the rate of change in Re was 10% or more was evaluated as B) | A (A case where Δn was 0.35 or more was evaluated as A) |

Now from value to molecule, other results behind:

| Liquid crystallinity [5] | SMILES | Light resistance [1] | Solubility [2] | Durability [3] | Δn [4] |
| --- | --- | --- | --- | --- | --- |
| A | C=CC(=O)OCCSc1ccc(C#Cc2ccc(COc3ccc(C#Cc4ccc(SCCOC(=O)C=C)cc4)cc3C)cc2)cc1 [Compound A-6] | A (the light resistance in a case where the rate of change in Re described below was less than 10% was evaluated as A) | A (the solubility in a case where the precipitation concentration was 10% by mass or more was evaluated as A) | A (the durability in a case where the rate of change in Re was less than 10% was evaluated as A) | A (A case where Δn was 0.35 or more was evaluated as A) |
| A | C=CC(=O)OCCSc1ccc(C#Cc2ccc(C(=O)Oc3ccc(C#Cc4ccc(SCCOC(=O)C=C)cc4)cc3C(=O)OC)cc2)cc1 [Compound A-4] | B (the light resistance in a case where the rate of change in Re was 10% or more was evaluated as B) | A (the solubility in a case where the precipitation concentration was 10% by mass or more was evaluated as A) | A (the durability in a case where the rate of change in Re was less than 10% was evaluated as A) | A (A case where Δn was 0.35 or more was evaluated as A) |
| B | C=CC(=O)OCCOc1ccc(C#Cc2ccc(SCCSc3ccc(C#Cc4ccc(OCCOC(=O)C=C)c(C)c4)cc3)cc2)cc1C [Compound A-17] | A (the light resistance in a case where the rate of change in Re described below was less than 10% was evaluated as A) | A (the solubility in a case where the precipitation concentration was 10% by mass or more was evaluated as A) | A (the durability in a case where the rate of change in Re was less than 10% was evaluated as A) | A (A case where Δn was 0.35 or more was evaluated as A) |
| A | C=CC(=O)OCCSc1ccc(C#Cc2ccc(OCCOc3ccc(C#Cc4ccc(SCCOC(=O)C=C)cc4)cc3C(=O)OC)c(C(=O)OC)c2)cc1 [Compound A-18] | A (the light resistance in a case where the rate of change in Re described below was less than 10% was evaluated as A) | A (the solubility in a case where the precipitation concentration was 10% by mass or more was evaluated as A) | A (the durability in a case where the rate of change in Re was less than 10% was evaluated as A) | A (A case where Δn was 0.35 or more was evaluated as A) |
| B | C=CC(=O)OCCSc1ccc(C#Cc2ccc(SCc3ccc(C#Cc4ccc(SCCOC(=O)C=C)cc4)c(OC)c3)cc2)cc1 [Compound A-5] | A (the light resistance in a case where the rate of change in Re described below was less than 10% was evaluated as A) | A (the solubility in a case where the precipitation concentration was 10% by mass or more was evaluated as A) | A (the durability in a case where the rate of change in Re was less than 10% was evaluated as A) | A (A case where Δn was 0.35 or more was evaluated as A) |
| A | C=CC(=O)OCCSc1ccc(C#Cc2ccc(COc3ccc(C#Cc4ccc(SCCOC(=O)C=C)cc4)cc3C(=O)OC)cc2)cc1 [Compound A-3] | A (the light resistance in a case where the rate of change in Re described below was less than 10% was evaluated as A) | A (the solubility in a case where the precipitation concentration was 10% by mass or more was evaluated as A) | A (the durability in a case where the rate of change in Re was less than 10% was evaluated as A) | A (A case where Δn was 0.35 or more was evaluated as A) |
